Test system: Product Of Calcium And Phosphorus
Assay: Phase 3 trial (Example 1): phosphorus times calcium product
Type: in vivo, human
Procedure: Serum phosphorus and calcium were performed at Screening (Visit 0); weekly during the Washout Period after Visit 1 (Week −2); at Visit 4 (Randomization Visit); at Visits 5 (Week 1), 6 (Week 2), 7 (Week 4), 8 (Week 6), 9 (Week 8), 10 (Week 10), 11 (Week 12), 12 (Week 16), 13 (Week 20), 14 (Week 24), 15 (Week 28), 16 (Week 32), 17 (Week 36), 18 (Week 40), 19 (Week 44), 20 (Week 48), and 21 (Week 52) of the 52-week Safety Assessment Period; and at Visits 22 (Week 53), 23 (Week 54), 24 (Week 55) and 25 (Week 56) of the Efficacy Assessment Period.
These variables will be analyzed using LOCF methodology. ANCOVA will be employed. The model will include treatment (fixed effect), and Visit-4 baseline (covariate). An analysis using MMRM method will be conducted as a sensitivity analysis. The least square mean estimates of the treatment effects as well as the 2-sided 95% confidence intervals (CI) of the treatment effects will be derived.
• 1. Change in serum calcium concentration at Weeks 12, 24, 36, 48, and 52 as compared to baseline (Visit 4). This variable will be analyzed using LOCF methodology. ANCOVA will be employed. The model will include treatment (fixed effect), and baseline (covariate). • 2. Change in ferritin, and TSAT at Weeks 12, 24, 36 and 48 as compared to baseline (Visit 4). This variable will be analyzed using LOCF methodology. ANCOVA will be employed. The model will include treatment (fixed effect), and baseline (covariate). • 3. Change in serum iron and TIBC at Weeks 12, 24, 36, 48, and 52 as compared to baseline (Visit 4). This variable will be analyzed using LOCF methodology. ANCOVA will be employed. The model will include treatment (fixed effect), and baseline (covariate). • 4. Change in Ca x P product at Weeks 12, 24, 36, 48, and 52 as compared to baseline (Visit 4). This variable will be analyzed using LOCF methodology. ANCOVA will be employed. The model will include treatment (fixed effect), and baseline (covariate). • 5. Change in iPTH at Weeks 12, 36, 52, and 56 as compared to baseline (Visit 4). This variable will be analyzed using LOCF methodology. ANCOVA will be employed. The model will include treatment (fixed effect), and baseline (covariate). • 6. Change in serum […], vitamin A, vitamin B-12, vitamin E, vitamin K and folic acid at Weeks 12, 36, and 52 as compared to baseline (Visit 4). This variable will be analyzed using LOCF methodology. ANCOVA will be employed. The model will include treatment (fixed effect), and baseline (covariate). • 7. Change in serum bicarbonate concentration at Weeks 12, 36, and 52 as compared to baseline (Visit 4). This variable will be analyzed using LOCF methodology. ANCOVA will be employed. The model will include treatment (fixed effect), and baseline (covariate). • 8. Change in IV iron intake at Weeks 12, 24, 36, 48, and 52 as compared to baseline (Visit 4). This variable will be analyzed using LOCF methodology. ANCOVA will be employed. The model will include treatment (fixed effect), and baseline (covariate). • 9. Change in the use of EPO (ESA) administered at Weeks 12, 24, 36, 48, and 52 as compared to baseline (Visit 4). This variable will be analyzed using LOCF methodology. ANCOVA will be employed. The model will include treatment (fixed effect), and baseline (covariate). • 10. Change in the use of Vitamin D supplementation (and its analogs) and Sensipar (cinacalcet) at Weeks 12, 24, 36, 48, and 52 as compared to baseline (Visit 4). This variable will be analyzed using LOCF methodology. ANCOVA will be employed. The model will include treatment (fixed effect), and baseline (covariate). • 11. Change in LDL, HDL, and triglycerides at Weeks 12, 36, and 52 as compared to baseline (Visit 4). This variable will be analyzed using LOCF methodology. ANCOVA will be employed. The model will include treatment (fixed effect), and baseline (covariate).

iron (+3), x (1, 2, 3-propanetricarboxylic acid, 2-hydroxy-), y (H2O) [KRX-0502]
Product Of Calcium And Phosphorus, Mean (Baseline, Table 12): 65.4075
Product Of Calcium And Phosphorus, Median (Baseline, Table 12): 62.7000
Product Of Calcium And Phosphorus, Week 12 Change from Baseline, Mean (Table 12): −16.5635
Product Of Calcium And Phosphorus, Week 12 Change from Baseline, Median (Table 12): −16.7400
Product Of Calcium And Phosphorus, LS Mean (Week 12, ANCOVA, Table 12): 48.97
Product Of Calcium And Phosphorus, Mean (Week 12, Table 12): 48.8440
Product Of Calcium And Phosphorus, Median (Week 12, Table 12): 47.5000
Product Of Calcium And Phosphorus, Treatment Differences, LS Mean (KRX-0502) − LS Mean (Control) (Week 12, control = sevelamer carbonate as a single agent): 1.45
